Experimental data published in patent publication US20060223846A1, “Aza-bridged-bicyclic amino acid derivatives as alpha4 integrin antagonists” (priority 2005, published 2006).

Tests used:
[1] = biological target: α4β1 (Homo sapiens, UniProt P05556+P13612); test: Ramos Cell Adhesion Assay (α4β1 Mediated Adhesion/VCAM-1); type: cell-based; parameters: Ramos cells, (50 μL at 2×10^6/mL) labeled with 5 μM Calcein AM; endogenous in cells; host or cells: Ramos cells; conditions: Ramos cells on recombinant hVCAM-1; read-out: α4β1 IC50
Description: (§1) Ramos Cell Adhesion Assay α4β1 Mediated Adhesion/VCAM-1) Immulon 9.6 well plates (Dynex) were coated with 100 μL recombinant hVCAM-1 at 4.0 μg/mL in 0.05 M NaCO3 buffer pH 9.0 overnight at 4° C. (R&D Systems). Plates were washed 3 times in PBS with 1% BSA and blocked for 1 h @ room temperature in this buffer. PBS was removed and compounds to be tested (50 μL) were added at 2× concentration. Ramos cells, (50 μL at 2×10^6/mL) labeled with 5 μM Calcein AM (Molecular Probes) for 1 h at 37° C., were added to each well and allowed to adhere for 1 h at room temperature. Plates were washed 3× in PBS+1% BSA and cells were lysed for 15 minutes in 100 μL of 1 M Tris pH 8.0 with 1% SDS. The plate was read at 485 nm excitation and 530 nm emission.

[2] = biological target: T1, human α4β7 (Homo sapiens, UniProt P13612+P26010); test: α4β7-K562 Cell Adhesion Assay (α4β7 Mediated Adhesion/VCAM-1); type: cell-based; conditions: K562 cells expressing human α4β7 on recombinant hVCAM-1; read-out: α4β7 IC50
T1 construct: expressed in transfected cells
T1 sequence (P13612 34-1032): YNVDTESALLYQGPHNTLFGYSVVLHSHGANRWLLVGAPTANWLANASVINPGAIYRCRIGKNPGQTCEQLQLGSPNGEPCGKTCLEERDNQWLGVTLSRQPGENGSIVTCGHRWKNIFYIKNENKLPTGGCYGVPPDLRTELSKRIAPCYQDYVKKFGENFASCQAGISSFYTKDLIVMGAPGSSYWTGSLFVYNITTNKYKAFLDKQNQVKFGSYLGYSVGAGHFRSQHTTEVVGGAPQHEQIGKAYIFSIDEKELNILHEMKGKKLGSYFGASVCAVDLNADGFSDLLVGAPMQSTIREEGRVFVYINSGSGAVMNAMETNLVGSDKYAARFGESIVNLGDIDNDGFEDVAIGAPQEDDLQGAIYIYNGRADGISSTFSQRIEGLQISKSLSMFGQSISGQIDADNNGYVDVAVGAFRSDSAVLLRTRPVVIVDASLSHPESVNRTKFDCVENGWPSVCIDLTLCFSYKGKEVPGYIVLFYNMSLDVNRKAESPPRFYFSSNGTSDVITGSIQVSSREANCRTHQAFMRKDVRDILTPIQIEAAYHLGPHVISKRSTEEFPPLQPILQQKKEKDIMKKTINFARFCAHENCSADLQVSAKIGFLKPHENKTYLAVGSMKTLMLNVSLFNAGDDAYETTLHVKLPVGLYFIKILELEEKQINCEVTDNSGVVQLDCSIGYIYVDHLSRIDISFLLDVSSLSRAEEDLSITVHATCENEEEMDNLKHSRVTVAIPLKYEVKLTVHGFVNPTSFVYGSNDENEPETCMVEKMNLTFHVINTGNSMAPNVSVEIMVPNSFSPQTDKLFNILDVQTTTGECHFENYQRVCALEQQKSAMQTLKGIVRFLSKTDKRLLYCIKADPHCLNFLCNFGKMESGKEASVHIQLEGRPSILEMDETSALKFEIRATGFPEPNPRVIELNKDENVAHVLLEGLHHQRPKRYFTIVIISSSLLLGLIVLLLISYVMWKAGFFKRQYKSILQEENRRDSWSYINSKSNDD
T1 sequence (P26010 20-798): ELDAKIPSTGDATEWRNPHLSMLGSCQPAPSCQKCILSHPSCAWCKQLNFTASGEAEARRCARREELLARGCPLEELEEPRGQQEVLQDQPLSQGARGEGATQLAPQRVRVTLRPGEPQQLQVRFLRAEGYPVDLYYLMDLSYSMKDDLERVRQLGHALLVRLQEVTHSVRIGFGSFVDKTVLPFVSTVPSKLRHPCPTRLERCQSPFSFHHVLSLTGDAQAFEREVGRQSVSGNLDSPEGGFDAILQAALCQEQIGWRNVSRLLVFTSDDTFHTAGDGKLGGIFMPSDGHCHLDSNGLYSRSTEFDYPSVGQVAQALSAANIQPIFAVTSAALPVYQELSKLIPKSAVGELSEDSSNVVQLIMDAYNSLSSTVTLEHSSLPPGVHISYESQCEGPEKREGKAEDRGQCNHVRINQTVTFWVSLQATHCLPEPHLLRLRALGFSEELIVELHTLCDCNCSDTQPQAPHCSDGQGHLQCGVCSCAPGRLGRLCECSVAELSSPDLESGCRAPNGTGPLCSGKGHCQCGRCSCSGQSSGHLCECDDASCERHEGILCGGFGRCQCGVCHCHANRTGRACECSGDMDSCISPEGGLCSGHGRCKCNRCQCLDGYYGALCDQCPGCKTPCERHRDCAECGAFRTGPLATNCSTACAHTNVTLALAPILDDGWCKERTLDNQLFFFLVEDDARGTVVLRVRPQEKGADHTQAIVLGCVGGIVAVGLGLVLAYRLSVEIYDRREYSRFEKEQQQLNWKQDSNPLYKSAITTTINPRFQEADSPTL
Description: as §1, with “α4β7-K562” for “Ramos”, “(α4β7” for “α4β1”, “96” for “9.6”, “System).” for “Systems).”, “A stable cell line of K562 cells expressing human α4β7,” for “Ramos cells,”

α4β1, sequence (P05556 21-798, one chain of several): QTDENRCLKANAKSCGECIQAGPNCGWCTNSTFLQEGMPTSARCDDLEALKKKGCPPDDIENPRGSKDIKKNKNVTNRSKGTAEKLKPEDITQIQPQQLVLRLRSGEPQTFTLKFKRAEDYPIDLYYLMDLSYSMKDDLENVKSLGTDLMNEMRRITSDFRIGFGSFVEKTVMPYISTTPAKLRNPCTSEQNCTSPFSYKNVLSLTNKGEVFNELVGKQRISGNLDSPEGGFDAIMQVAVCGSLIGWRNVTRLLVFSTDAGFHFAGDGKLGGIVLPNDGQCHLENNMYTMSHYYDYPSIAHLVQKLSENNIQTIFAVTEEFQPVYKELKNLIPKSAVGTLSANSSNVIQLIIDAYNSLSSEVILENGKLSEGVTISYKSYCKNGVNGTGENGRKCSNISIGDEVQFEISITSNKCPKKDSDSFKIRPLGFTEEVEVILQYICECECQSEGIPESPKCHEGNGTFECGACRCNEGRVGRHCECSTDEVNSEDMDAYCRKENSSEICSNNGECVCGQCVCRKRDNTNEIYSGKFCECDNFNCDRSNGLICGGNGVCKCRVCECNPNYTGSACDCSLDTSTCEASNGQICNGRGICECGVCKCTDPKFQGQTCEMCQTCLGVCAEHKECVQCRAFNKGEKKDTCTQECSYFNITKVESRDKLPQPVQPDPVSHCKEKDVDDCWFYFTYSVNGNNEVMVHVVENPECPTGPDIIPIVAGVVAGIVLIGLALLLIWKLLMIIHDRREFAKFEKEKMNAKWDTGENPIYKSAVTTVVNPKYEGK

Row | SMILES | IC50 [1] [nM] | IC50 [2] [nM]
1 | COc1ccccc1CC(=O)N1C2CCC(CC2)C1C(=O)NC(Cc1ccc(NC(=O)c2c(Cl)cncc2Cl)cc1)C(=O)O (stereo not drawn) [Cpd 29] | 28 | 27
2 | O=C(Nc1ccc(CC(NC(=O)C2C3CCC(CC3)N2C(=O)Cc2ccsc2)C(=O)O)cc1)c1c(Cl)cncc1Cl (mixture of isomers) [Cpd 60] | 156 | 233
3 | CC(=Cc1ccccc1)C(=O)N1C2CCC(CC2)C1C(=O)NC(Cc1ccc(NC(=O)c2c(Cl)cncc2Cl)cc1)C(=O)O (stereo not drawn) [Cpd 40] | 77 | 943
4 | O=C(Nc1ccc(CC(NC(=O)C2C3CCC(CC3)N2C(=O)c2ccccc2C(F)(F)F)C(=O)O)cc1)c1c(Cl)cncc1Cl (stereo not drawn) [Cpd 12] | 460 | 739
5 | O=C(Nc1ccc(CC(NC(=O)C2C3CCC(CC3)N2C(=O)Cc2ccccc2C(F)(F)F)C(=O)O)cc1)c1c(Cl)cncc1Cl (stereo not drawn) [Cpd 2] | 164 | 316
6 | O=C(Nc1ccc(CC(NC(=O)C2C3CCC(CC3)N2Cc2ccc(Cl)s2)C(=O)O)cc1)c1c(Cl)cncc1Cl (stereo not drawn) [Cpd 19] | 2560 | > 5000
7 | O=C(Nc1ccc(CC(NC(=O)C2C3CCC(CC3)N2C(=O)CCC2CCCC2)C(=O)O)cc1)c1c(Cl)cncc1Cl (stereo not drawn) [Cpd 28] | 89 | 150
8 | CC(C)(C)OC(=O)N1CCN(CCC(=O)N2C3CCC(CC3)C2C(=O)NC(Cc2ccc(NC(=O)c3c(Cl)cncc3Cl)cc2)C(=O)O)CC1 (stereo not drawn) [Cpd 35] | 122 | > 5000
9 | O=C(Nc1ccc(CC(NC(=O)C2C3CCC(CC3)N2C(=O)c2cc(Cl)cc(Cl)c2)C(=O)O)cc1)c1c(Cl)cncc1Cl (stereo not drawn) [Cpd 10] | 842 | 185
10 | O=C(Nc1ccc(CC(NC(=O)C2C3CCC(CC3)N2C(=O)Cc2csc3ccccc23)C(=O)O)cc1)c1c(Cl)cncc1Cl (stereo not drawn) [Cpd 62] | 292 | 565
11 | O=C(Nc1ccc(CC(NC(=O)C2C3CCC(CC3)N2C(=O)Nc2cccc(Cl)c2)C(=O)O)cc1)c1c(Cl)cncc1Cl (stereo not drawn) [Cpd 23] | 248 | 444
12 | Cc1ccc(CCN2C3CCC(CC3)C2C(=O)NC(Cc2ccc(NC(=O)c3c(Cl)cncc3Cl)cc2)C(=O)O)cc1 (stereo not drawn) [Cpd 58] | 201 | 16
13 | O=C(Nc1ccc(CC(NC(=O)C2C3CCC(CC3)N2C(=O)Nc2ccccc2)C(=O)O)cc1)c1c(Cl)cncc1Cl (stereo not drawn) [Cpd 20] | 259 | 287
14 | COc1cccc(CC(=O)N2C3CCC(CC3)C2C(=O)NC(Cc2ccc(NC(=O)c3c(Cl)cncc3Cl)cc2)C(=O)O)c1 (stereo not drawn) [Cpd 59] | 504 | 255
15 | O=C(Nc1ccc(CC(NC(=O)C2C3CCC(CC3)N2C(=O)c2c(Cl)cccc2Cl)C(=O)O)cc1)c1c(Cl)cncc1Cl (stereo not drawn) [Cpd 14] | > 5000 | > 5000
16 | O=C(Nc1ccc(CC(NC(=O)C2C3CCC(CC3)N2C(=O)Cc2ccc3ccccc3c2)C(=O)O)cc1)c1c(Cl)cncc1Cl (stereo not drawn) [Cpd 7] | 63 | 44
17 | COc1ccc(OC)c(C(=O)N2C3CCC(CC3)C2C(=O)NC(Cc2ccc(NC(=O)c3c(Cl)cncc3Cl)cc2)C(=O)O)c1 (stereo not drawn) [Cpd 8] | 188 | 1020
18 | O=C(Nc1ccc(CC(NC(=O)C2C3CCC(CC3)N2C(=O)CCc2cc(C(F)(F)F)cc(C(F)(F)F)c2)C(=O)O)cc1)c1c(Cl)cncc1Cl (stereo not drawn) [Cpd 55] | 72 | 181
19 | O=C(Nc1ccc(CC(NC(=O)C2C3CCC(CC3)N2Cc2ccccc2)C(=O)O)cc1)c1c(Cl)cncc1Cl (stereo not drawn) [Cpd 18] | 543 | 309
20 | O=C(Nc1ccc(CC(NC(=O)C2C3CCC(CC3)N2C(=O)Cc2ccccn2)C(=O)O)cc1)c1c(Cl)cncc1Cl (stereo not drawn) [Cpd 4] | 25 | 32
21 | COc1ccc(CC(=O)N2C3CCC(CC3)C2C(=O)NC(Cc2ccc(NC(=O)c3c(Cl)cncc3Cl)cc2)C(=O)O)cc1 (stereo not drawn) [Cpd 30] | 115 | 71

Stronger by IC50 [1], values ahead:

Row | IC50 [1] [nM] | IC50 [2] [nM] | SMILES
22 | 8 | 24 | O=C(Nc1ccc(CC(NC(=O)C2C3CCC(CC3)N2C(=O)OCc2ccccc2)C(=O)O)cc1)c1c(Cl)cncc1Cl (stereo not drawn) [Cpd 42]
23 | 3 | 36 | COc1ccccc1C=CC(=O)N1C2CCC(CC2)C1C(=O)NC(Cc1ccc(NC(=O)c2c(Cl)cncc2Cl)cc1)C(=O)O (stereo not drawn) [Cpd 45]
24 | 1 | 9 | COc1cccc(CCC(=O)N2C3CCC(CC3)C2C(=O)NC(Cc2ccc(NC(=O)c3c(Cl)cncc3Cl)cc2)C(=O)O)c1 (stereo not drawn) [Cpd 49]
25 | 3 | 10 | O=C(Nc1ccc(CC(NC(=O)C2C3CCC(CC3)N2C(=O)CCc2cccnc2)C(=O)O)cc1)c1c(Cl)cncc1Cl (stereo not drawn) [Cpd 65]
26 | 3 | 141 | O=C(Nc1ccc(CC(NC(=O)C2C3CCC(CC3)N2C(=O)CCN2CCNCC2)C(=O)O)cc1)c1c(Cl)cncc1Cl (stereo not drawn) [Cpd 53]
27 | 12 | 30 | O=C(Nc1ccc(CC(NC(=O)C2C3CCC(CC3)N2C(=O)Cc2cccs2)C(=O)O)cc1)c1c(Cl)cncc1Cl (stereo not drawn) [Cpd 32]
28 | 11 | 30 | O=C(Nc1ccc(CC(NC(=O)C2C3CCC(CC3)N2C(=O)CC2CCOCC2)C(=O)O)cc1)c1c(Cl)cncc1Cl (stereo not drawn) [Cpd 41]
29 | 5 | 86 | O=C(Nc1ccc(CC(NC(=O)C2C3CCC(CC3)N2C(=O)CCN2CCCCC2)C(=O)O)cc1)c1c(Cl)cncc1Cl (stereo not drawn) [Cpd 43]
30 | 3 | 32 | O=C(Nc1ccc(CC(NC(=O)C2C3CCC(CC3)N2C(=O)Cc2ccncc2)C(=O)O)cc1)c1c(Cl)cncc1Cl (stereo not drawn) [Cpd 44]
31 | 8 | 106 | COc1cc(CC(=O)N2C3CCC(CC3)C2C(=O)NC(Cc2ccc(NC(=O)c3c(Cl)cncc3Cl)cc2)C(=O)O)cc(OC)c1 (stereo not drawn) [Cpd 31]
32 | 20 | 62 | O=C(Nc1ccc(CC(NC(=O)C2C3CCC(CC3)N2C(=O)Cc2cccnc2)C(=O)O)cc1)c1c(Cl)cncc1Cl (stereo not drawn) [Cpd 5]
33 | 2 | 23 | CN(C)c1ccc(CC(=O)N2C3CCC(CC3)C2C(=O)NC(Cc2ccc(NC(=O)c3c(Cl)cncc3Cl)cc2)C(=O)O)cc1 (stereo not drawn) [Cpd 56]
